Reference: patent US8680367B2, “Method to prime plants in order to increase their pathogen resistance” (priority 2004, dated 2014)

System: callose deposition
Test: Callose deposition in Arabidopsis after Peronospora parasitica infection
Format: in vivo
Settings: positive control plants treated with BABA
Method: This is represented by the disease index on the Y axis. […] Resistance assays were performed as described previously (Plant Cell 1996, 8, 1225-1237; Plant cell 1998, 10, 1571-1580). B. KO of RKS4 (rks4-1; increased expression of N-terminus, see FIG. 4) also increases resistance to Peronospora parasitica, although less than the positive control induced with β-aminobutyric acid (BABA). Plants were scored using an arbitrary scale I-IV, in which I means normal to very slight symptoms and IV means severe symptoms to death. C. […] Both tests were performed as described in (Plant Cell., 2005, 17, 987-999).
Callose deposition was observed on Arabidopsis leaves after infection with Hyaloperonospora parasitica essentially as described by Ton et al. (Plant Cell (2005) 17(3):987-999).

CC(N)CC(=O)O (stereo not drawn) [BABA, β-aminobutyric acid]
Callose deposition upon treatment: increased
